Reference: US12065485B2, “Treatment of staphylococcal disorders” (priority 2013, dated 2024)
Ends that are not written are not given here. Peptide text beside a SMILES is read from it. * marks the point of attachment. For = O=C*

Experiments:
FSMCs = assay type: cell-based, mouse
Protocol: In brief, FSMCs (2×10^6 m^−1) were preloaded with or without anti-DNP-IgE (0.3 g ml^−1) in RPMI with IL-3 for 15 hours. Cells were washed and loaded with Fluo-4AM (5 μM, Life Technologies) for 30 minutes. Cells were washed again and further incubated in Tyrode's buffer with or without EGTA (1 mM) for 30 minutes. DNP-HSA (30 ng ml^−1), Ionomycin (1 μM) or δ-toxin (30 μg ml^−1) were used to induce calcium flux in these cells.

[1] = tested on: MCs (FSMCs, BMCMCs, MC/9 cells); assay type: cell-based, mouse; settings: in vitro; for effect on MC degranulation induced by δ-toxin: pre-treatment before δ-toxin stimulation
Protocol: Preparations of BMCMCs and fetal skin-derived mast cells (FSMCs) were previously described in Yamada, et al., J Invest Dermatol 121, 1425-1432 (2003). The purity of MCs was confirmed by surface expression of CD45 and CD117 (eBioscience).
Degranulation of MCs was assessed by β-hexosaminidase assay as previously described in Yamada, et al., J Invest Dermatol 121, 1425-1432, (2003). Briefly, MCs (2×10^6 m^−1) were preloaded with or without anti-DNP IgE (0.3 μg ml^−1) in RPMI with IL-3 for 15 hours. The cells were resuspended in Tyrode's buffer (Sigma) at 2×10^4 cells per 100 μl for FSMCs or 1×10^5 cells per 100 μl for BMCMCs and MC/9 cells, aliquoted in triplicate into a 96-well U-bottom plate and incubated with EGTA (1 mM, Sigma), LY294002 (100 μM, Sigma) and WRW4 (Trp-Arg-Trp-Trp-Trp-Trp-CONH2 (SEQ ID NO: […], American peptide) and Cyclosporine H (10 μM, Alexis Biochemicals) for 30 min, and then stimulated with DNP-HSA (30 ng ml^−1) TNP-HSA (30 nM) for 30 min, followed by exposure to Ionomycin (1 μM, Sigma) δ-toxin (indicated concentrations), PSMαs (indicated concentrations) or FPR2 ligands for 15 min. Results of various stimuli are given as a relative percentage, where freeze and thaw of total cell culture represents 100%.

MC/9 cells = assay: Viability of MCs after stimulation with synthetic PSMs (LDH release); settings: synthetic peptides
Protocol: (a) % LDH released from MC/9 cells stimulated by medium alone (Ctrl) and indicated concentrations (μg ml^−1) of PSMs for 15 or 60 minutes. […] Data represent means±s.d. of triplicate cultures. Data are representative of three independent experiments.
Because δ-toxin is highly related to PSMα2 and PSMα3, the viability of MCs after stimulation with synthetic PSMα2, PSMα3, or δ-toxin, was assessed.

[2] = tested on: primary mouse macrophages and keratinocytes; assay: Cell toxicity by LDH assay in primary mouse macrophages and keratinocytes
Protocol: Cell toxicity of δ-toxin. BMCMCs, BMMφ (bone marrow derived macrophages), bone marrow neutrophils and primary keratinocytes isolated from mice were stimulated with PSMα (10 μg ml−1) or δ-toxin (10 or 100 μg ml−1) for indicated times. Cell toxicity was measured by LDH assay. Data represent means±s.d. of triplicate cultures. NS; not significant, ***P<0.001, one-way ANOVA with Tukey's post-hoc test for multiple comparisons. Data are representative of two independent experiments.

MC degranulation in vivo = assay: Passive cutaneous anaphylaxis (PCA) assay, Evans blue leakage in ear skin; settings: mice pretreated with WRW4, then S. aureus culture supernatant intradermally
Protocol: To assess whether δ-toxin induces MC degranulation in vivo, synthetic δ-toxin was injected into the skin of mouse ears and MC degranulation was monitored by the vascular leakage of Evan's blue dye into the extravascular space using the passive cutaneous anaphylaxis (PCA) assay.
Four to six weeks later, the mice were subjected to experimental PCA or epicutaneous S. aureus sensitization. […] PCA assay was performed as described, with minor modifications. […] After inoculation, 0.1 ml of 5 mg ml −1 Evans blue dye was injected intravenously. Extravasation of Evans blue dye was monitored for 30 minutes, and 4 mm of punched-out biopsies were incubated at 63° C. overnight in 200 μl formamide. Quantitative analysis of extracts was determined by measuring the absorbance at 600 nm.

Compound	effect on MC degranulation induced by δ-toxin [1]	cell viability / cell death in MCs (MC/9 cells)	other results
O=C(O)CN(CCOCCOCCN(CC(=O)O)CC(=O)O)CC(=O)O [EGTA, ethylene glycol tetraacetic acid]	blocked MC degranulation	–	effect on δ-toxin-triggered Ca2+ influx (FSMCs; EGTA 1 mM): abrogated
CCCCC[C@H](O)/C=C/C=C\C=C\C=C\[C@@H](O)[C@@H](O)CCCC(=O)O [Lipoxin A4]	–	–	induction of MC degranulation [1]: did not induce mouse MC degranulation
CC[C@H](C)[C@H](NC(=O)CNC(=O)[C@H](CCSC)NC=O)C(=O)N[C@H](C(=O)N[C@@H](C)C(=O)NCC(=O)N[C@H](C(=O)N[C@H](C(=O)N[C@@H](CCCCN)C(=O)N[C@H](C(=O)N[C@H](C(=O)N[C@@H](CCCCN)C(=O)N[C@@H](CO)C(=O)N[C@@H](CC(C)C)C(=O)N[C@H](C(=O)N[C@@H](CCC(=O)O)C(=O)N[C@@H](CCC(N)=O)C(=O)N[C@@H](Cc1ccccc1)C(=O)N[C@H](C(=O)NCC(=O)N[C@@H](CCCCN)C(=O)O)[C@@H](C)O)[C@@H](C)CC)[C@@H](C)CC)C(C)C)[C@@H](C)CC)[C@@H](C)CC)[C@@H](C)CC [PSMα2] (For-MGIIAGIIKVIKSLIEQFTGK-OH)	–	induced robust loss of cell viability	cell death [2]: triggered robust cell death
CC[C@H](C)[C@H](NC(=O)CNC(=O)[C@H](CCSC)NC=O)C(=O)N[C@H](C(=O)N[C@@H](C)C(=O)NCC(=O)N[C@H](C(=O)N[C@H](C(=O)N[C@@H](CCCCN)C(=O)N[C@@H](Cc1ccccc1)C(=O)N[C@H](C(=O)N[C@@H](CCCCN)C(=O)NCC(=O)N[C@@H](CC(C)C)C(=O)N[C@H](C(=O)N[C@@H](CCC(=O)O)C(=O)N[C@@H](CCCCN)C(=O)N[C@@H](Cc1ccccc1)C(=O)N[C@H](C(=O)NCC(=O)N[C@@H](CCCCN)C(=O)O)[C@@H](C)O)[C@@H](C)CC)[C@@H](C)CC)[C@@H](C)CC)[C@@H](C)CC)[C@@H](C)CC [PSMα3]	–	induced robust loss of cell viability	–
C[C@H](CCC(=O)O)C[C@H](C)C[C@H](C)C(=O)/C=C(\O)[C@H](C)C[C@H](C)C/C=C/[C@@H](C)[C@@H](O)[C@@H](C)[C@@H](O)C[C@@H]1CC[C@@](C)([C@H]2CC[C@@](C)([C@@H](C)O)O2)O1 [ionomycin]	–	–	induction of Ca2+ influx (FSMCs): induced rapid Ca 2+ influx
CC[C@H](C)[C@H](NC(=O)[C@H](Cc1c[nH]c2ccccc12)NC(=O)[C@H](CCCCN)NC(=O)[C@@H](NC(=O)[C@H](CC(C)C)NC(=O)[C@H](CC(=O)O)NC(=O)CNC(=O)[C@@H](NC(=O)[C@@H](NC(=O)[C@H](CO)NC(=O)[C@@H](NC(=O)[C@@H](NC(=O)[C@H](CC(=O)O)NC(=O)[C@H](CCC(N)=O)NC(=O)[C@H](C)NC(=O)[C@@H](N)CCSC)[C@@H](C)CC)[C@@H](C)CC)[C@@H](C)O)[C@@H](C)CC)C(C)C)C(=O)N[C@H](C(=O)N[C@@H](CC(=O)O)C(=O)N[C@H](C(=O)N[C@H](C(=O)N[C@@H](CC(N)=O)C(=O)N[C@@H](CCCCN)C(=O)N[C@@H](Cc1ccccc1)C(=O)N[C@H](C(=O)N[C@@H](CCCCN)C(=O)N[C@@H](CCCCN)C(=O)O)[C@@H](C)O)C(C)C)[C@@H](C)O)[C@@H](C)CC [δ-toxin]	–	did not induce detectable cell death	–
LESIFRSLLFRVM [MMK1, human FPR2 ligand]	–	–	induction of MC degranulation [1]: did not induce mouse MC degranulation
Trp-Arg-Trp-Trp-Trp-Trp-CONH2 (WRWWWW-NH2) [WRW4]	inhibited MC degranulation	–	effect on MC degranulation induced by δ-toxin in vivo (MC degranulation in vivo): inhibited MC degranulation
pertussis toxin	partially reduced	–	–
